Measured values reported in PubChem BioAssay AID330 (DTP/NCI, 2004).
Several values for one entry are separate records, joined by “and”; a condition that tells them apart may be missing. Identical values can stand only once. Inconclusive results and toxic doses are left out. How the source made its calls: active means survival T/C of 150% or more; inactive means T/C below 125% in these data.

Tested on: P388 leukemia ip, CD2F1 mice, survival T/C
Experiment: NCI In Vivo Anticancer Drug Screen. Data for tumor model P388 Leukemia (intraperitoneal) in CD2F1 (CDF1) mice
Settings: endpoint: median survival time, higher = longer survival
Method in brief: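 Mice carrying the transplanted tumor received test compound or vehicle. Survival was recorded in each group, and the value is the treated-group measurement divided by that of the vehicle-treated control group.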

[1] = dose: 60.0 mg/kg/injection, schedule: Q01DX005 (ip), vehicle: saline with Tween-80
[2] = dose: 120.0 mg/kg/injection, schedule: Q01DX005 (ip), vehicle: saline with Tween-80
[3] = dose: 240.0 mg/kg/injection, schedule: Q01DX005 (ip), vehicle: saline with Tween-80
[4] = dose: 50.0 mg/kg/injection, schedule: Q01DX005 (ip), vehicle: saline with Tween-80
[5] = dose: 100.0 mg/kg/injection, schedule: Q01DX005 (ip), vehicle: saline with Tween-80
[6] = dose: 50.0 mg/kg/injection, schedule: Q01DX009 (ip), vehicle: Klucel (hydroxypropylcellulose) (HPC)
[7] = dose: 100.0 mg/kg/injection, schedule: Q01DX009 (ip), vehicle: Klucel (hydroxypropylcellulose) (HPC)
[8] = dose: 200.0 mg/kg/injection, schedule: Q01DX009 (ip), vehicle: Klucel (hydroxypropylcellulose) (HPC)
[9] = dose: 12.5 mg/kg/injection, schedule: Q01DX009 (ip), vehicle: water
[10] = dose: 25.0 mg/kg/injection, schedule: Q01DX009 (ip), vehicle: water
[11] = dose: 50.0 mg/kg/injection, schedule: Q01DX009 (ip), vehicle: water
[12] = dose: 100.0 mg/kg/injection, schedule: Q01DX009 (ip), vehicle: water
[13] = dose: 25.0 mg/kg/injection, schedule: Q01DX009 (ip), vehicle: saline with Tween-80
[14] = dose: 50.0 mg/kg/injection, schedule: Q01DX009 (ip), vehicle: saline with Tween-80
[15] = dose: 100.0 mg/kg/injection, schedule: Q04DX003 (ip), vehicle: saline with Tween-80
[16] = dose: 100.0 mg/kg/injection, schedule: Q01DX009 (ip), vehicle: saline with Tween-80

Measured: T/C

N#CCc1[nH]nc2ncnc(N)c12
inactive: dose: 6.25 mg/kg/injection, schedule: Q01DX009 (ip), vehicle: other 102 % of control | dose: 12.5 mg/kg/injection, schedule: Q01DX009 (ip), vehicle: other 103 % of control | dose: 25.0 mg/kg/injection, schedule: Q01DX009 (ip), vehicle: other 97 % of control | dose: 50.0 mg/kg/injection, schedule: Q01DX009 (ip), vehicle: other 97 % of control | dose: 100.0 mg/kg/injection, schedule: Q01DX009 (ip), vehicle: other 105 % of control

COC(=O)c1cc(Cl)ccc1OCC(O)CNc1ccc(Cl)cc1C(=O)c1ccccc1 (centres undefined)
inactive: [1] 92 % of control | [2] 100 % of control | [3] 90 % of control

CCC(C)C(NC(=O)C(CCCCN)N(C(=O)OCc1ccccc1)C(=O)OCc1ccccc1)C(=O)O (centres undefined)
inactive: [4] 99 % of control | [5] 90 % of control | dose: 200.0 mg/kg/injection, schedule: Q01DX005 (ip), vehicle: saline with Tween-80 94 % of control

CC1(C)CC(=O)C(CC(=O)c2ccccc2)=C(NNc2ccncc2)C1
inactive: [6] 94 % of control | [7] 95 % of control | [8] 91 % of control

COc1cc2c(cc1OC)[C@@H](CO)[C@H]1c3cc4c(cc3CCN1C2)OCO4
inactive: dose: 50.0 mg/kg/injection, schedule: Q04DX003 (ip), vehicle: distilled water + Tween-80 106 % of control and 115 % of control | dose: 100.0 mg/kg/injection, schedule: Q04DX003 (ip), vehicle: distilled water + Tween-80 100 % of control and 98 % of control | dose: 200.0 mg/kg/injection, schedule: Q04DX003 (ip), vehicle: distilled water + Tween-80 105 % of control and 120 % of control

NC(CCS(=O)(=O)NCCCl)C(=O)O (centres undefined)
inactive: [9] 103 % of control | [10] 105 % of control | [11] 104 % of control | [12] 102 % of control | dose: 200.0 mg/kg/injection, schedule: Q01DX009 (ip), vehicle: water 105 % of control

O=C(O)c1c(CS(F)(F)(F)(F)F)cc(=O)oc1CS(F)(F)(F)(F)F
inactive: [4] 106 % of control | [5] 105 % of control

Cc1cc(Cl)n2nc(-c3ccc(Cl)cc3)nc2n1
inactive: dose: 12.5 mg/kg/injection, schedule: Q01DX009 (ip), vehicle: Klucel (hydroxypropylcellulose) (HPC) 106 % of control | dose: 25.0 mg/kg/injection, schedule: Q01DX009 (ip), vehicle: Klucel (hydroxypropylcellulose) (HPC) 100 % of control | [6] 109 % of control and 110 % of control

CC(=O)[C@@H]1C[C@H]1C(=O)c1ccccc1
inactive: dose: 67.5 mg/kg/injection, schedule: Q04DX002 (ip), vehicle: Klucel (hydroxypropylcellulose) (HPC) 96 % of control | dose: 135.0 mg/kg/injection, schedule: Q04DX002 (ip), vehicle: Klucel (hydroxypropylcellulose) (HPC) 94 % of control | dose: 270.0 mg/kg/injection, schedule: Q04DX002 (ip), vehicle: Klucel (hydroxypropylcellulose) (HPC) 96 % of control

Cc1oc2c(C)c3oc(=O)cc(C)c3cc2c1CCl
inactive: dose: 12.5 mg/kg/injection, schedule: Q04DX002 (ip), vehicle: saline with Tween-80 114 % of control | dose: 25.0 mg/kg/injection, schedule: Q04DX002 (ip), vehicle: saline with Tween-80 123 % of control | dose: 400.0 mg/kg/injection, schedule: Q05DX002 (ip), vehicle: saline with Tween-80 98 % of control

CC1=CC(=C2C(=O)c3ccccc3C2=O)C=C(C)N1CCNCCO
inactive: dose: 60.0 mg/kg/injection, schedule: Q01DX005 (ip), vehicle: Klucel (hydroxypropylcellulose) (HPC) 99 % of control | dose: 120.0 mg/kg/injection, schedule: Q01DX005 (ip), vehicle: Klucel (hydroxypropylcellulose) (HPC) 90 % of control | dose: 240.0 mg/kg/injection, schedule: Q01DX005 (ip), vehicle: Klucel (hydroxypropylcellulose) (HPC) 93 % of control

COc1cc([C@@H]2c3cc4c(cc3[C@H](OC(C)=O)[C@H]3COC(=O)[C@@H]23)OCO4)cc(OC)c1OC
inactive: [13] 118 % of control | dose: 29.3 mg/kg/injection, schedule: Q04DX003 (ip), vehicle: saline with Tween-80 88 % of control | dose: 66.0 mg/kg/injection, schedule: Q04DX003 (ip), vehicle: saline with Tween-80 100 % of control | [15] 115 % of control
active: [14] 150 % of control

O=C1C=CC2(O)CCCN12 (centres undefined)
inactive: dose: 5.0 mg/kg/injection, schedule: Q01DX005 (ip), vehicle: saline 106 % of control | dose: 10.0 mg/kg/injection, schedule: Q01DX005 (ip), vehicle: saline 110 % of control | dose: 20.0 mg/kg/injection, schedule: Q01DX005 (ip), vehicle: saline 118 % of control

CC(=O)Nn1cnc2c(SCc3ccccc3)ncnc21
inactive: [6] 100 % of control | [14] 100 % of control | [7] 100 % of control | [16] 95 % of control | [15] 95 % of control | [8] 100 % of control | dose: 200.0 mg/kg/injection, schedule: Q01DX009 (ip), vehicle: saline with Tween-80 122 % of control

O=C1c2ccccc2C(=O)c2c1ccc(C1C(=O)c3ccccc3C1=O)c2-c1c(C2C(=O)c3ccccc3C2=O)ccc2c1C(=O)c1ccccc1C2=O
inactive: [1] 103 % of control | [2] 99 % of control | [3] 97 % of control

CN(C)CC(C)(CN(C)C)C(=O)/C=C/c1ccc(Cl)c(Cl)c1
inactive: dose: 1.88 mg/kg/injection, schedule: Q01DX005 (ip), vehicle: saline with Tween-80 118 % of control | dose: 3.75 mg/kg/injection, schedule: Q01DX005 (ip), vehicle: saline with Tween-80 110 % of control | dose: 7.5 mg/kg/injection, schedule: Q01DX005 (ip), vehicle: saline with Tween-80 102 % of control and 110 % of control

CN(CCCN(C)CCC1CCCCC1)CCC1CCCCC1
inactive: dose: 12.5 mg/kg/injection, schedule: Q01DX009 (ip), vehicle: saline with Tween-80 100 % of control | [13] 103 % of control | [14] 105 % of control

CCOC(=O)c1c(-c2ccc3c(c2)OCO3)[nH][nH]c1=O
inactive: dose: 100.0 mg/kg/injection, schedule: Q04DX002 (ip), vehicle: saline 101 % of control | dose: 200.0 mg/kg/injection, schedule: Q04DX002 (ip), vehicle: saline 99 % of control

COc1ccc(-c2cc(-c3cc(-c4ccc(OC)cc4)nc(N)n3)nc(N)n2)cc1
inactive: dose: 60.0 mg/kg/injection, schedule: Q01DX005 (ip), vehicle: saline 105 % of control | dose: 120.0 mg/kg/injection, schedule: Q01DX005 (ip), vehicle: saline 102 % of control | dose: 240.0 mg/kg/injection, schedule: Q01DX005 (ip), vehicle: saline 105 % of control

CCN(CC)CCCC(C)NS(=O)(=O)c1cccc2c(N(C)C)cccc12 (centres undefined)
inactive: dose: 6.25 mg/kg/injection, schedule: Q01DX009 (ip), vehicle: water 96 % of control | [9] 97 % of control | [10] 93 % of control | [11] 96 % of control | [12] 99 % of control

O=c1oc(-c2nc3sc4c(c3c(=O)o2)CCCC4)nc2sc3c(c12)CCCC3
inactive: dose: 50.0 mg/kg/injection, schedule: Q01DX005 (ip), vehicle: Klucel (hydroxypropylcellulose) (HPC) 100 % of control | dose: 100.0 mg/kg/injection, schedule: Q01DX005 (ip), vehicle: Klucel (hydroxypropylcellulose) (HPC) 100 % of control | dose: 200.0 mg/kg/injection, schedule: Q01DX005 (ip), vehicle: Klucel (hydroxypropylcellulose) (HPC) 93 % of control

Clc1nnc(Cl)s1
inactive: [13] 96 % of control | [14] 95 % of control | [16] 101 % of control

NC(=O)NCP(=O)(CNC(N)=O)CNC(N)=O
inactive: dose: 50.0 mg/kg/injection, schedule: Q01DX005 (ip), vehicle: saline 100 % of control | dose: 100.0 mg/kg/injection, schedule: Q01DX005 (ip), vehicle: saline 97 % of control | dose: 200.0 mg/kg/injection, schedule: Q01DX005 (ip), vehicle: saline 95 % of control
